Each structure is given as a SMILES string.

The target of experiment [1] is T1, GAR1 (Trichoderma reesei, UniProt Q3ZFI7).
T1 construct: codon-optimized, expressed in S. cerevisiae BY4741, lysate
T1 sequence (Q3ZFI7 1-309): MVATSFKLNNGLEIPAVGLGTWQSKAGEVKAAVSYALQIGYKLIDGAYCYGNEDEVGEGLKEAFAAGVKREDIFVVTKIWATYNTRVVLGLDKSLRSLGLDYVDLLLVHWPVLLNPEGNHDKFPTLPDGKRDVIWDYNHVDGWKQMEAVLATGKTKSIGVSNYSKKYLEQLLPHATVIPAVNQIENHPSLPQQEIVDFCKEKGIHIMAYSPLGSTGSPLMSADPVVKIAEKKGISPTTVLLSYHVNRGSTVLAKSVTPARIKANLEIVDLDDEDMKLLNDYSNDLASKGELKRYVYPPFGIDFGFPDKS
The experiment in a line: reductase activity in yeast lysate. The class given is biochemical.

Experiment [2] deals with T2, GAAA (Aspergillus niger, UniProt A8DRH9).
T2 construct: codon-optimized, expressed in S. cerevisiae BY4741, lysate
T2 sequence (A8DRH9 1-412): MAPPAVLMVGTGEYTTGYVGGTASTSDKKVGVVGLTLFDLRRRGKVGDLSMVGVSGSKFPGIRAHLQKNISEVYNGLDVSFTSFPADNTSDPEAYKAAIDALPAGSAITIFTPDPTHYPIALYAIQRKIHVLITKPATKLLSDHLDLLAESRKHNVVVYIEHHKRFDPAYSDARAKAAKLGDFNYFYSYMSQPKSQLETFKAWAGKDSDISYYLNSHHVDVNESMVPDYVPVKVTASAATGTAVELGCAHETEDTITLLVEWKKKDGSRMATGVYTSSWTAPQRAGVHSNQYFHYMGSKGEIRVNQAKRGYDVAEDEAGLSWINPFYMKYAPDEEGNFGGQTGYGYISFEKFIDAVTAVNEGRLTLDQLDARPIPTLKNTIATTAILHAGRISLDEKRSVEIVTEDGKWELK
The experiment in a line: reductase activity in yeast lysate. Type of experiment: biochemical.

Experiment [3] deals with T3, uronate dehydrogenase (UDH) (Pseudomonas syringae group genomosp. 3, UniProt Q888H1).
T3 construct: genomically integrated, expressed in S. cerevisiae with GatA
T3 sequence (Q888H1 1-275): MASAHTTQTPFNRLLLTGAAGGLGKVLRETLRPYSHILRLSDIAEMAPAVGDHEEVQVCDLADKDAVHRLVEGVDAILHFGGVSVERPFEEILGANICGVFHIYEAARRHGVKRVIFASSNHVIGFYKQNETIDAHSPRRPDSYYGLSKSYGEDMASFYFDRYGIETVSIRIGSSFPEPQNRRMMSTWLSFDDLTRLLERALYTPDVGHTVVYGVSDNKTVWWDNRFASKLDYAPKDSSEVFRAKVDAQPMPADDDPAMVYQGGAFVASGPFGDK
The experiment in a line: conversion to meso-galactaric acid by UDH-expressing yeast, HPLC. The class given is cell-based. The settings on record: orange peel hydrolysate, GatA co-expressed.

The target in experiment [4] is T4, GAAC (Aspergillus niger, UniProt A8DRH7).
T4 construct: codon-optimized, expressed in S. cerevisiae BY4741, lysate
T4 sequence (A8DRH7 1-335): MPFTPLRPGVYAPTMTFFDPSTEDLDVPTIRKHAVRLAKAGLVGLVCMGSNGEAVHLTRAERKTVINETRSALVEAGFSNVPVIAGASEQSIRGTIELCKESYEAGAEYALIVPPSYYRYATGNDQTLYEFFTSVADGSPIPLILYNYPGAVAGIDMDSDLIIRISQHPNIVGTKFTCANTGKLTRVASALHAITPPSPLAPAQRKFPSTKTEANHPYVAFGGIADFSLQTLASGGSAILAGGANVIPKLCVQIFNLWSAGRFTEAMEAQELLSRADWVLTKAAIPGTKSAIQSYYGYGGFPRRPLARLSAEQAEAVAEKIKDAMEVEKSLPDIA
The experiment can be described thus: aldolase activity in yeast lysate. The class given is biochemical.

As to `O=C(O)[C@H]1OC(O)[C@H](O)[C@@H](O)[C@H]1O` (stereo partly drawn) [D-galUA], the “reductase activity in yeast lysate” value is on record as “D-galacturonate reductase from Trichoderma reesei (GAR1)” in experiment [1] and “lower specific activities measured for GAAA compared to GAR1 in cell lysate” in experiment [2]. In addition, the “conversion to meso-galactaric acid by UDH-expressing yeast, HPLC” value in experiment [3] is “conversion of D-galUA to meso-galactaric acid was observed in the UDH and GatA co-expression strain”.
As for `O=C(O)C(=O)C[C@H](O)[C@@H](O)CO` [2-keto-3-deoxy-L-galactonate], the “aldolase activity in yeast lysate” value in experiment [4] was 2-keto-3-deoxy-L-galactonate aldolase from Aspergillus niger (GAAC).

The record behind these values is publication PMC6265301, “Engineering Saccharomyces cerevisiae for co-utilization of D-galacturonic acid and D-glucose from citrus peel waste” (Nature Communications, 2018).
